ChEMBL document CHEMBL1201862, “PubChem BioAssay data set” (2004)
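Compound exposure: 48 hours, 5 concentrations, 96-well plates. GI50 = concentration required for 50% inhibition of growth.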 Activity calls are given as the source filed them. No stated cut-off is given here; in the data, active = GI50 up to about 1.1 µM and inactive = higher.

Tests used:
Experiment in all cases: NCI anticancer screen, dose series, 48 h
UACC-257 = tested on: UACC-257
CAKI-1 = tested on: CAKI-1
HCT-116 = tested on: HCT-116
NCI/ADR-RES = tested on: NCI/ADR-RES
T47D = tested on: T47D
SF-268 = tested on: SF-268
EKVX = tested on: EKVX
NCI-H226 = tested on: NCI-H226
OVCAR-8 = tested on: OVCAR-8
HL-60 = tested on: HL-60
TK-10 = tested on: TK-10
U-251 = tested on: U-251
A549 = tested on: A549
MOLT-4 = tested on: MOLT-4
OVCAR-3 = tested on: OVCAR-3
M14 = tested on: M14
HCC 2998 = tested on: HCC 2998
Hs-578T = tested on: Hs-578T
SN12C = tested on: SN12C
MDA-MB-231 = tested on: MDA-MB-231

Measured: GI50

NC(Cc1c[nH]c2ccccc12)P(=O)(O)O (configuration not stated)
inactive: UACC-257 > 100 µM | CAKI-1 > 100 µM | HCT-116 > 100 µM | NCI/ADR-RES > 100 µM | T47D > 100 µM | SF-268 > 100 µM | EKVX > 100 µM | NCI-H226 > 100 µM | OVCAR-8 > 100 µM | HL-60 > 100 µM | TK-10 > 100 µM | U-251 > 100 µM | A549 > 100 µM | MOLT-4 > 100 µM | OVCAR-3 > 100 µM | M14 > 100 µM | HCC 2998 > 100 µM | Hs-578T > 100 µM | SN12C > 100 µM | MDA-MB-231 > 100 µM

CC(C)(C)OC(=O)N1Cc2cc(O)ccc2C[C@H]1C(=O)O
active: HL-60 0.137 µM
inactive: UACC-257 > 100 µM | CAKI-1 > 100 µM | HCT-116 > 100 µM | NCI/ADR-RES > 100 µM | T47D > 100 µM | SF-268 > 100 µM | EKVX > 100 µM | NCI-H226 > 100 µM | OVCAR-8 > 100 µM | TK-10 > 100 µM | U-251 > 100 µM | A549 > 100 µM | MOLT-4 > 100 µM | OVCAR-3 > 100 µM | HCC 2998 > 100 µM | Hs-578T > 100 µM | SN12C > 100 µM | MDA-MB-231 > 100 µM

[O-][S+](Nc1ccccc1)c1ccc(-c2ccccc2)cc1 (configuration not stated)
inactive: UACC-257 > 100 µM | HCT-116 > 100 µM | NCI/ADR-RES > 100 µM | T47D 11.5 µM | SF-268 > 100 µM | EKVX > 100 µM | NCI-H226 > 100 µM | OVCAR-8 45.8 µM | HL-60 > 100 µM | TK-10 > 100 µM | U-251 > 100 µM | A549 > 100 µM | MOLT-4 > 100 µM | OVCAR-3 > 100 µM | HCC 2998 > 100 µM | Hs-578T > 100 µM | SN12C > 100 µM | MDA-MB-231 > 100 µM

CSC(CC(=O)O)C(=O)O (configuration not stated)
inactive: UACC-257 > 100 µM | CAKI-1 > 100 µM | HCT-116 > 100 µM | NCI/ADR-RES > 100 µM | T47D > 100 µM | SF-268 > 100 µM | EKVX > 100 µM | NCI-H226 > 100 µM | OVCAR-8 > 100 µM | HL-60 > 100 µM | TK-10 > 100 µM | U-251 > 100 µM | A549 > 100 µM | MOLT-4 > 100 µM | OVCAR-3 > 100 µM | M14 > 100 µM | HCC 2998 12.5 µM | Hs-578T > 100 µM | SN12C > 100 µM | MDA-MB-231 > 100 µM

CC(CO)CCNc1ncnc2c1ncn2CCC#N (configuration not stated)
inactive: UACC-257 > 100 µM | CAKI-1 > 100 µM | HCT-116 > 100 µM | NCI/ADR-RES > 100 µM | T47D > 100 µM | SF-268 > 100 µM | EKVX > 100 µM | NCI-H226 > 100 µM | OVCAR-8 > 100 µM | HL-60 > 100 µM | TK-10 > 100 µM | A549 > 100 µM | MOLT-4 > 100 µM | OVCAR-3 > 100 µM | M14 > 100 µM | HCC 2998 > 100 µM | Hs-578T > 100 µM | SN12C > 100 µM | MDA-MB-231 > 100 µM

O=C(CC(=O)N(C(=O)c1ccccc1)c1ccc(Cl)cc1)N/N=C\c1cc(/N=N/c2ccccc2Cl)ccc1O
inactive: CAKI-1 > 100 µM | HCT-116 75 µM | NCI/ADR-RES > 10 µM | T47D 51.6 µM | SF-268 47.1 µM | EKVX 90.2 µM | NCI-H226 > 100 µM | OVCAR-8 > 100 µM | HL-60 12.7 µM | TK-10 27.2 µM | U-251 39 µM | A549 > 100 µM | MOLT-4 18.7 µM | OVCAR-3 48 µM | M14 > 100 µM | HCC 2998 > 100 µM | Hs-578T 20 µM | SN12C 42.5 µM | MDA-MB-231 29.2 µM

CC(=O)OC(Cn1cncn1)(Cn1cncn1)c1ccc(Cl)cc1Cl
inactive: UACC-257 > 100 µM | CAKI-1 > 100 µM | NCI/ADR-RES > 100 µM | T47D > 100 µM | SF-268 > 100 µM | EKVX > 100 µM | NCI-H226 > 100 µM | OVCAR-8 > 100 µM | HL-60 > 100 µM | TK-10 > 100 µM | U-251 > 100 µM | A549 > 100 µM | MOLT-4 > 100 µM | OVCAR-3 > 100 µM | M14 > 100 µM | HCC 2998 > 100 µM | Hs-578T > 100 µM | MDA-MB-231 > 100 µM

CCC/C=C/C=C/C1CC(O)C(O)C(=O)C1CO (configuration not stated)
inactive: UACC-257 > 100 µM | CAKI-1 > 100 µM | HCT-116 > 100 µM | NCI/ADR-RES > 100 µM | T47D > 100 µM | SF-268 > 100 µM | EKVX > 100 µM | NCI-H226 > 100 µM | OVCAR-8 > 100 µM | HL-60 48.2 µM | TK-10 > 100 µM | U-251 > 100 µM | A549 > 100 µM | OVCAR-3 21.6 µM | M14 > 100 µM | HCC 2998 > 100 µM | Hs-578T > 100 µM | SN12C > 100 µM | MDA-MB-231 > 100 µM

CC(=O)O[C@H]1C(=O)[C@@]2(C)[C@H]([C@H](OC(=O)c3ccccc3)[C@]3(O)C[C@H](OC(=O)[C@H](O)[C@@H](NC(=O)c4ccco4)c4ccccc4)C(C)=C1C3(C)C)[C@]1(OC(C)=O)CO[C@@H]1C[C@@H]2O
inactive: NCI/ADR-RES 2.64 µM
active: CAKI-1 0.278 µM | HCT-116 < 0.00125 µM | T47D < 0.00125 µM | SF-268 0.00162 µM | EKVX 0.0112 µM | NCI-H226 0.00126 µM | OVCAR-8 < 0.00125 µM | HL-60 < 0.00125 µM | TK-10 0.022 µM | U-251 < 0.00125 µM | A549 < 0.00125 µM | MOLT-4 0.00286 µM | OVCAR-3 < 0.00125 µM | M14 < 0.00125 µM | HCC 2998 < 0.00125 µM | Hs-578T < 0.00125 µM | MDA-MB-231 0.013 µM

COc1cc2c(cc1OC)C(=O)/C(=C/c1cc(Cl)cc(Cl)c1)C2
inactive: UACC-257 26 µM | CAKI-1 4.33 µM | HCT-116 3.58 µM | NCI/ADR-RES 1.76 µM | T47D 7.4 µM | SF-268 21.4 µM | EKVX 19.8 µM | NCI-H226 3.87 µM | HL-60 1.35 µM | TK-10 55.3 µM | U-251 5.32 µM | A549 12.1 µM | MOLT-4 5.08 µM | OVCAR-3 3.33 µM | M14 4.18 µM | Hs-578T 11.3 µM | SN12C 5.93 µM | MDA-MB-231 11.3 µM
active: HCC 2998 0.351 µM

CN(C)CCN1C(=O)c2cccc3cc(N)cc(c23)C1=O [AMONAFIDE]
active: MOLT-4 0.804 µM
inactive: UACC-257 4.36 µM | HCT-116 1.87 µM | NCI/ADR-RES 3.33 µM | T47D 4.5 µM | SF-268 5.46 µM | EKVX 5.94 µM | NCI-H226 2.4 µM | OVCAR-8 2.14 µM | HL-60 2.24 µM | TK-10 3.89 µM | U-251 3.64 µM | OVCAR-3 5.81 µM | M14 3.72 µM | HCC 2998 2.48 µM | Hs-578T 6.21 µM | SN12C 3.19 µM | MDA-MB-231 2.46 µM
